We go through 1 molecule from patent US20190175560A1, “MEBENDAZOLE CANCER THERAPIES AND METHODS OF USE” (Shepherd Therapeutics, Inc., priority 2017, published 2019).

Holding throughout (format): cell-based
Test [1] has as its system rare cancer tumor cell lines including neuroblastoma, rhabdomyosarcoma and Ewing sarcoma. As to the kind of experiment: MBZ cell viability IC50 across rare cancer tumor cell lines. The following applies: several rare cancer tumor cell lines; 72 hours; read-out: IC50s (range over cell lines). The method, then:
The effect of mebendazole administration on cell lines derived from exemplary cancers was tested. One approach to determining the effectiveness of mebendazole in the treatment of cancer comprises in vitro testing. In this approach, cancer cell lines representative of the cancers of the disclosure are cultured in vitro according to standard techniques (see, for example, Human Cell Culture Protocols, Third Edition, […] R. D. Hughes, Editors, Humana Press, 2012), and increasing concentrations of mebendazole are administered to determine the IC50 value. As used herein, the term “IC50 value” refers to the concentration of a compound (for example mebendazole) wherein the response to that compound (such as inhibited cellular viability) is reduced by half. The IC50 is thus a measure of the effectiveness of a compound in inhibiting a biological process. […] Based on this biology, several rare cancer tumor cell lines including neuroblastoma, rhabdomyosarcoma and Ewing sarcoma were analyzed for sensitivity to MBZ treatment in vitro. […] In all cases, including those described below, the viable cells were determined using the CellTiter Glo® kit and an IC50 curve was generated using the PRISM software.

Test [2] relates to gastric cancer primary cells isolated from patient-derived xenograft model GA0033. As to the kind of experiment: Ex vivo 3D assay, cell viability (Cell Titer Glo). The following applies: 168 h, 3D culture, seven days. The method, then: (§1) To evaluate the efficacy of MBZ in an additional model system, an ex vivo 3D assay using gastric cancer primary cells isolated from two patient-derived xenograft models (A. GA0033 and B. GA3155) was performed. Cells were seeded in 3D cultures and treated for seven days with MBZ at nine different doses in triplicate. Cell viability was determined using Cell Titer Glo. An IC50 was established using the PRISM software.
(Cellular ATP, detected with luciferase, serves as a proxy for viable cell number.)

The test system of test [3] is gastric cancer primary cells isolated from patient-derived xenograft model GA3155. The test is described as follows: Ex vivo 3D assay, cell viability (Cell Titer Glo). The following applies: 168 h, 3D culture, seven days. The method, then:
as §1

Regarding `COC(=O)Nc1nc2ccc(C(=O)c3ccccc3)cc2[nH]1` [MBZ, methyl N-(6-benzoyl-1H-benzimidazol-2-yl)carbamate], the values for the IC50 in test [1], in test [2] and in test [3] were 0.05 to 1 µM, 0.74 µM and 0.76 µM, respectively.
